This note sets out measurements from patent US20200369728A1, “PEPTIDOMIMETIC MACROCYCLES AND USES THEREOF” (Aileron Therapeutics, Inc., priority 2015, published 2020).

SMILES strings stand for the structures. pEC50: −log10 of the molar value. Bridge positions count the residues as written; N and C are the ends. Square brackets hold non-standard residues; d marks the D form. Peptide text beside a SMILES is read from it. R8 = C=CCCCCCC[C@@](C)(N)C(=O)O; hLeu = CC(C)CC[C@H](N)C(=O)O; S5 = C=CCCC[C@](C)(N)C(=O)O Bounds are passed on as bounds.

One assay relates to Caspase 3. Briefly: Caspase 3 detection assay in SJSA1 cells. The assay is classed as cell-based. As to conditions: SJSA1, 48 h, Caspase 3 activation over DMSO-treated cells.
A further assay has as its system RKO. Briefly: Cell viability assay (MTT), RKO. As to conditions: read-out: RKO EC50 (72 h).
The subject of another assay is SJSA-1 cells. The assay is described as follows: Cell lysis by peptidomimetic macrocycles (LDH release). It counts as cell-based. As to conditions: SJSA-1, 1 h. In short, it runs like this: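 Membrane lysis measured as supernatant LDH after a 1 h, 37 °C exposure of SJSA-1 cells, held in RPMI with 1% FBS, to macrocycles at final 6.25-50 μM with 0.5% DMSO. Lytic references were 10 μM melittin and 1% Triton X-100; DMSO alone served as non-lytic control.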

One may read the pEC50 as −log10 of the EC50, conventionally taken in molar units. Regarding `CC(=O)N[C@@H](CC(C)C)C(=O)N[C@H](C(=O)N[C@@H](Cc1ccccc1)C(=O)N[C@]1(C)CCCCCC/C=C\CCC[C@@](C)(C(=O)N[C@@H](CO)C(=O)N[C@@H](C)C(=O)N[C@@H](C)C(N)=O)NC(=O)[C@H](CCC(C)C)NC(=O)[C@H](CCC(N)=O)NC(=O)[C@H](C)NC(=O)[C@H](Cc2c[nH]c3ccccc23)NC(=O)[C@H](Cc2ccc(O)cc2)NC(=O)[C@H](C)NC1=O)[C@@H](C)O` [compound 114] (Ac-LTF[R8]AYWAQ[hLeu][S5]SAA-NH2; staple (Z) 4-11), in the assay on Caspase 3, the “caspase 0.3 μM” value was found to be 1, the “caspase 3 μM” value is on record as 6, the “caspase 10 μM” value stood at 28 and the “caspase 30 μM” value is on record as 34. Also, the pEC50 in the assay with RKO was 4.82 to 5.30. Besides, in the assay with SJSA-1 cells, the “6.25 μM % Lysed cells (1 h LDH)” value is given as 3%, the “25 μM % Lysed cells (1 h LDH)” value is 4% and the “50 μM % Lysed cells (1 h LDH)” value is on record as 9%.
On to `CC(=O)N[C@@H](C)C(=O)N[C@@H](CC(C)C)C(=O)N[C@H](C(=O)N[C@@H](Cc1ccccc1)C(=O)N[C@]1(C)CCCCCCC=CCCC[C@@](C)(C(=O)N[C@@H](CO)C(=O)N[C@@H](C)C(=O)N[C@@H](C)C(=O)N[C@@H](C)C(=O)N[C@H](C)C(N)=O)NC(=O)[C@H](CC2CCC2)NC(=O)[C@H](CCC(N)=O)NC(=O)[C@H](C)NC(=O)[C@H](Cc2c[nH]c3ccccc23)NC(=O)[C@H](Cc2ccc(O)cc2)NC(=O)[C@H](CCC(=O)O)NC1=O)[C@@H](C)O` (single isomer, unassigned) [compound 357], for which, in the assay on Caspase 3, the “caspase 0.3 μM” value is reported as 2, the “caspase 1 μM” value is 7, the “caspase 3 μM” value is recorded as 11 and the “caspase 10 μM” value is given as 15. Further, the “caspase 30 μM” value in the assay on Caspase 3 amounted to 23. Also, the pEC50 in the assay on RKO is more than 5.30. Moreover, in the assay with SJSA-1 cells, the “6.25 μM % Lysed cells (1 h LDH)” value turned out to be 0%, the “25 μM % Lysed cells (1 h LDH)” value was determined as 0% and the “50 μM % Lysed cells (1 h LDH)” value was 0%.
For `CC(=O)N[C@@H](CC(C)C)C(=O)N[C@H](C(=O)N[C@@H](Cc1ccccc1)C(=O)N[C@]1(C)CCCCCCC=CCCC[C@@](C)(C(=O)N[C@@H](C)C(=O)N[C@@H](C)C(=O)N[C@@H](C)C(=O)N[C@@H](C)C(=O)N[C@@H](C)C(=O)N[C@H](C)C(N)=O)NC(=O)[C@H](CC(C)C)NC(=O)[C@H](CCC(N)=O)NC(=O)[C@H](C)NC(=O)[C@H](Cc2c[nH]c3cc(Cl)ccc23)NC(=O)[C@H](Cc2ccc(O)cc2)NC(=O)[C@H](C)NC1=O)[C@@H](C)O` (single isomer, unassigned) [compound 338], in the assay with Caspase 3, the “caspase 0.3 μM” value is recorded as 1, the “caspase 1 μM” value was 5, the “caspase 3 μM” value worked out at 23 and the “caspase 10 μM” value was determined as 20. Further, the “caspase 30 μM” value with Caspase 3 is recorded as 29. In the assay with RKO, the pEC50 was more than 5.30. In the assay on SJSA-1 cells, the “6.25 μM % Lysed cells (1 h LDH)” value was determined as 0%, the “25 μM % Lysed cells (1 h LDH)” value came to 0% and the “50 μM % Lysed cells (1 h LDH)” value is 1%.
In the case of `CC(=O)N[C@@H](CCC(=O)O)C(=O)N[C@H](C(=O)N[C@@H](Cc1ccccc1)C(=O)N[C@]1(C)CCCCCCC=CCCC[C@@](C)(C(=O)N[C@@H](CO)C(=O)N[C@@H](C)C(=O)N[C@@H](C)C(N)=O)NC(=O)[C@H](CC(C)C)NC(=O)[C@H](CCC(N)=O)NC(=O)[C@H](C)NC(=O)[C@H](Cc2c[nH]c3ccccc23)NC(=O)[C@H](Cc2ccc(O)cc2)NC(=O)[C@H](CCC(=O)O)NC1=O)[C@@H](C)O` [compound 161] (Ac-ETF[R8]EYWAQL[S5]SAA-NH2; staple 4-11), in the assay with Caspase 3, the “caspase 0.3 μM” value worked out at 2, the “caspase 3 μM” value worked out at 8, the “caspase 10 μM” value came to 14 and the “caspase 30 μM” value was 22. Besides, in the assay with RKO, the pEC50 is less than 4.52. For the same compound, in the assay on SJSA-1 cells, the “6.25 μM % Lysed cells (1 h LDH)” value came to 1%, the “25 μM % Lysed cells (1 h LDH)” value is given as −1% and the “50 μM % Lysed cells (1 h LDH)” value stood at 0%.
`CC(=O)N[C@@H](CCC(=O)O)C(=O)N[C@H](C(=O)N[C@@H](Cc1ccccc1)C(=O)N[C@]1(C)CCCCCCC=CCCC[C@@](C)(C(=O)N[C@@H](CO)C(=O)N[C@H](C(=O)N[C@@H](C)C(N)=O)C(C)C)NC(=O)[C@H](CC(C)C)NC(=O)[C@H](CCC(N)=O)NC(=O)[C@H](C)NC(=O)[C@H](Cc2c[nH]c3ccccc23)NC(=O)[C@H](Cc2ccc(O)cc2)NC(=O)[C@H](C(C)C)NC1=O)[C@@H](C)O` [compound 126] (Ac-ETF[R8]VYWAQL[S5]SVA-NH2; staple 4-11): in the assay with Caspase 3, the “caspase 0.3 μM” value came to 1, the “caspase 3 μM” value worked out at 1, the “caspase 10 μM” value was 6 and the “caspase 30 μM” value stood at 30. The pEC50 in the assay on RKO is less than 4.52. Further, in the assay on SJSA-1 cells, the “6.25 μM % Lysed cells (1 h LDH)” value came to 1%, the “25 μM % Lysed cells (1 h LDH)” value amounted to 1% and the “50 μM % Lysed cells (1 h LDH)” value came out at 1%.
Regarding `CC(=O)N[C@@H](CC(C)C)C(=O)N[C@H](C(=O)N[C@@H](Cc1ccccc1)C(=O)N[C@]1(C)CCCCCCC=CCCC[C@@](C)(C(=O)N[C@@H](CO)C(=O)N[C@@H](C)C(=O)N[C@@H](C)C(N)=O)NC(=O)[C@H](CC(C)C)NC(=O)[C@H](C)NC(=O)[C@H](C(C)C)NC(=O)[C@H](Cc2c[nH]c3ccccc23)NC(=O)[C@H](Cc2ccc(O)cc2)NC(=O)[C@H](C)NC1=O)[C@@H](C)O` [compound 196] (Ac-LTF[R8]AYWVAL[S5]SAA-NH2; staple 4-11), in the assay on Caspase 3, the “caspase 0.3 μM” value stood at 1, the “caspase 3 μM” value stood at 4, the “caspase 10 μM” value is reported as 33 and the “caspase 30 μM” value came out at 26. The pEC50 in the assay on RKO is more than 5.30. Also, in the assay on SJSA-1 cells, the “6.25 μM % Lysed cells (1 h LDH)” value worked out at 0%, the “25 μM % Lysed cells (1 h LDH)” value was 0% and the “50 μM % Lysed cells (1 h LDH)” value is given as 3%.
On to `CC(=O)N[C@@H](CC(C)C)C(=O)N[C@H](C(=O)N[C@@H](Cc1ccccc1)C(=O)N[C@]1(C)CCCCCCC=CCCC[C@@](C)(C(=O)N[C@@H](CO)C(=O)N[C@@H](CC(C)C)C(=O)N[C@@H](C)C(N)=O)NC(=O)[C@H](CC(C)C)NC(=O)[C@H](CCC(N)=O)NC(=O)[C@H](C)NC(=O)[C@H](Cc2c[nH]c3ccccc23)NC(=O)[C@H](Cc2ccc(O)cc2)NC(=O)[C@H](C)NC1=O)[C@@H](C)O` (single isomer, unassigned) [compound 118], for which, in the assay on Caspase 3, the “caspase 0.3 μM” value turned out to be 1, the “caspase 3 μM” value is 2, the “caspase 10 μM” value stood at 18 and the “caspase 30 μM” value is 27. Besides, the pEC50 in the assay with RKO is more than 5.30. In the assay on SJSA-1 cells, the “6.25 μM % Lysed cells (1 h LDH)” value stood at 4%, the “25 μM % Lysed cells (1 h LDH)” value amounted to 2% and the “50 μM % Lysed cells (1 h LDH)” value is 4%.
As for `CC(=O)N[C@@H](CC(C)C)C(=O)N[C@H](C(=O)N[C@@H](Cc1ccccc1)C(=O)N[C@]1(C)CCCCCCC=CCCC[C@@](C)(C(=O)N[C@@H](C)C(=O)N[C@@H](C)C(=O)N[C@@H](C)C(=O)N[C@@H](C)C(=O)N[C@@H](C)C(=O)N[C@@H](C)C(=O)N[C@H](C)C(N)=O)NC(=O)[C@H](CC(C)C)NC(=O)[C@H](CCC(N)=O)NC(=O)[C@H](C)NC(=O)[C@H](Cc2c[nH]c3ccccc23)NC(=O)[C@H](Cc2ccc(O)cc2)NC(=O)[C@H](C)NC1=O)[C@@H](C)O` (single isomer, unassigned) [compound 316], in the assay with Caspase 3, the “caspase 0.3 μM” value was determined as 6.5, the “caspase 1 μM” value was 10.5, the “caspase 3 μM” value worked out at 21 and the “caspase 10 μM” value is on record as 32. Moreover, in the assay on Caspase 3, the “caspase 30 μM” value was 32.5. The pEC50 in the assay with RKO was more than 5.30. Further, in the assay on SJSA-1 cells, the “6.25 μM % Lysed cells (1 h LDH)” value is 0%, the “25 μM % Lysed cells (1 h LDH)” value was found to be 0% and the “50 μM % Lysed cells (1 h LDH)” value was determined as 1%.
